Data: patent publication US20240158446A1, “CYCLIC COMPOUND HAVING SELECTIVE INHIBITORY ACTION ON KRAS OVER HRAS AND NRAS” (CHUGAI SEIYAKU KABUSHIKI KAISHA, priority 2021, published 2024)
*1 amine or outer side, *2 acyl side, *3 side chain or, on linkers, in order; H or OH if unused. Where a SMILES comes first, the peptide text is derived from it. Bridges are numbered along the chain shown (N, C = ends). [ ]: non-standard residue; d: D form. The star is where a group is joined. X25 = O=C([C@H](Cc1ccc(C(F)(F)F)cc1)N(CCC(F)(F)F)[*:1])[*:2]; X22 = O=C([C@H](Cc1ccc(C(F)(F)F)cc1)N(CC1CCCC1)[*:1])[*:2]; X39 = CC(C)CCN([C@@H](Cc1ccc(C(F)(F)F)cc1)C(=O)[*:2])[*:1]; hPhe(3-Cl-4-CF3) = N[C@@H](CCc1ccc(C(F)(F)F)c(Cl)c1)C(=O)O; X37 = O=C([C@H](Cc1ccc(C(F)(F)F)cc1)N(CC1CCC1)[*:1])[*:2]; X23 = C=CCCN([C@@H](Cc1ccc(C(F)(F)F)cc1)C(=O)[*:2])[*:1]; X38 = C#CCN([C@@H](Cc1ccc(C(F)(F)F)cc1)C(=O)[*:2])[*:1]; NMeGly(cPent) = CN[C@H](C(=O)O)C1CCCC1; NMeD = CN[C@@H](CC(=O)O)C(=O)O; NMeL = CN[C@@H](CC(C)C)C(=O)O; Morpholide = C1CN(*)CCO1; Ac5c = NC1(C(=O)O)CCCC1; Sar = CNCC(=O)O

Tests used:
[1] = biological target: GDP-bound KRAS wild-type protein (Homo sapiens, UniProt P01116); assay: Binding to KRAS by surface plasmon resonance (SPR), Single Cycle Kinetics; conditions: SPR Single Cycle Kinetics, GDP-bound KRAS wild-type protein, 1:1 binding model; read-out: KRAS KD
[2] = biological target: GDP-bound NRAS wild-type protein (Homo sapiens, UniProt P01111); assay: Binding to NRAS by surface plasmon resonance (SPR), Single Cycle Kinetics; conditions: SPR, GDP-bound NRAS wild-type protein vs GDP-bound KRAS wild-type protein
[3] = biological target: GDP-bound HRAS wild-type protein (Homo sapiens, UniProt P01112); assay: Binding to HRAS by surface plasmon resonance (SPR), Single Cycle Kinetics; conditions: SPR, GDP-bound HRAS wild-type protein vs GDP-bound KRAS wild-type protein
Sequence of GDP-bound HRAS wild-type protein (P01112 whole entry): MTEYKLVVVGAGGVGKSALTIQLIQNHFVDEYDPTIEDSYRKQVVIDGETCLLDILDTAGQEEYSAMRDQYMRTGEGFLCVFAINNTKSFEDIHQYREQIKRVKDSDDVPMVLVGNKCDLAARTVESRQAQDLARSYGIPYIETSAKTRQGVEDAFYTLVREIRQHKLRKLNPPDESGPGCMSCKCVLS

Sequence of GDP-bound NRAS wild-type protein (P01111 whole entry): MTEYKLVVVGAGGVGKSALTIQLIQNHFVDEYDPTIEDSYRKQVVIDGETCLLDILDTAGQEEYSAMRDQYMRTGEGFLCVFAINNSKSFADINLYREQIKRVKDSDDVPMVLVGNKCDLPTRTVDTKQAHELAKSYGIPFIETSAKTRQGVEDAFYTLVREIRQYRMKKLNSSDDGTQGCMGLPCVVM
Sequence of GDP-bound KRAS wild-type protein (P01116 whole entry): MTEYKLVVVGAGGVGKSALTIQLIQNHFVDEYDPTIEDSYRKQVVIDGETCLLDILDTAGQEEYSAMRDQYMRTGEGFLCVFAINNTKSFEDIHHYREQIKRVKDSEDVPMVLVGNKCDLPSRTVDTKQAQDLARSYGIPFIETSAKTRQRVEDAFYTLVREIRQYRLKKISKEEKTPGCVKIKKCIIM

CC[C@H](C)[C@@H]1NC(=O)[C@H](CC(C)C)N(C)C(=O)C[C@@H](C(=O)N2CCOCC2)N(C)C(=O)[C@H](C2CCCC2)N(C)C(=O)C2(CCCC2)NC(=O)[C@@H]2CCCN2C(=O)[C@H](CCc2ccc(C(F)(F)F)c(Cl)c2)NC(=O)CN(C)C(=O)[C@H](Cc2ccc(C(F)(F)F)cc2)N(CC2CCC2)C(=O)CN(C)C(=O)CN(C)C1=O [PP0123] ([NMeL]I[Sar][Sar][X37][Sar][hPhe(3-Cl-4-CF3)]P[Ac5c][NMeGly(cPent)][NMeD]-Morpholide; lactam N-11)
Kd [1]: 0.83 nM
NRAS/KRAS (ratio of KD value for NRAS to KD value for KRAS) [2]: B (a compound having 3 or more and less than 10 is denoted as B)
HRAS/KRAS (ratio of KD value for HRAS to KD value for KRAS) [3]: C (A compound having a KD ratio of 0.1 or more and less than 3 is denoted as C)

CC[C@H](C)[C@@H]1NC(=O)[C@H](CC(C)C)N(C)C(=O)C[C@@H](C(=O)N2CCOCC2)N(C)C(=O)[C@H](C2CCCC2)N(C)C(=O)C2(CCCC2)NC(=O)[C@@H]2CCCN2C(=O)[C@H](CCc2ccc(C(F)(F)F)c(Cl)c2)NC(=O)CN(C)C(=O)[C@H](Cc2ccc(C(F)(F)F)cc2)N(CC2CCCC2)C(=O)CN(C)C(=O)CN(C)C1=O [PP0124] ([NMeL]I[Sar][Sar][X22][Sar][hPhe(3-Cl-4-CF3)]P[Ac5c][NMeGly(cPent)][NMeD]-Morpholide; lactam N-11)
Kd [1]: 3.5 nM
NRAS/KRAS (ratio of KD value for NRAS to KD value for KRAS) [2]: C (A compound having a KD ratio of 0.1 or more and less than 3 is denoted as C)
HRAS/KRAS (ratio of KD value for HRAS to KD value for KRAS) [3]: C (A compound having a KD ratio of 0.1 or more and less than 3 is denoted as C)

CC[C@H](C)[C@@H]1NC(=O)[C@H](CC(C)C)N(C)C(=O)C[C@@H](C(=O)N2CCOCC2)N(C)C(=O)[C@H](C2CCCC2)N(C)C(=O)C2(CCCC2)NC(=O)[C@@H]2CCCN2C(=O)[C@H](CCc2ccc(C(F)(F)F)c(Cl)c2)NC(=O)CN(C)C(=O)[C@H](Cc2ccc(C(F)(F)F)cc2)N(CCC(C)C)C(=O)CN(C)C(=O)CN(C)C1=O [PP0126] ([NMeL]I[Sar][Sar][X39][Sar][hPhe(3-Cl-4-CF3)]P[Ac5c][NMeGly(cPent)][NMeD]-Morpholide; lactam N-11)
Kd [1]: 0.43 nM
NRAS/KRAS (ratio of KD value for NRAS to KD value for KRAS) [2]: C (A compound having a KD ratio of 0.1 or more and less than 3 is denoted as C)
HRAS/KRAS (ratio of KD value for HRAS to KD value for KRAS) [3]: C (A compound having a KD ratio of 0.1 or more and less than 3 is denoted as C)

C=CCCN1C(=O)CN(C)C(=O)CN(C)C(=O)[C@H]([C@@H](C)CC)NC(=O)[C@H](CC(C)C)N(C)C(=O)C[C@@H](C(=O)N2CCOCC2)N(C)C(=O)[C@H](C2CCCC2)N(C)C(=O)C2(CCCC2)NC(=O)[C@@H]2CCCN2C(=O)[C@H](CCc2ccc(C(F)(F)F)c(Cl)c2)NC(=O)CN(C)C(=O)[C@@H]1Cc1ccc(C(F)(F)F)cc1 [PP0129] ([NMeL]I[Sar][Sar][X23][Sar][hPhe(3-Cl-4-CF3)]P[Ac5c][NMeGly(cPent)][NMeD]-Morpholide; lactam N-11)
Kd [1]: 0.2 nM
NRAS/KRAS (ratio of KD value for NRAS to KD value for KRAS) [2]: B (a compound having 3 or more and less than 10 is denoted as B)
HRAS/KRAS (ratio of KD value for HRAS to KD value for KRAS) [3]: C (A compound having a KD ratio of 0.1 or more and less than 3 is denoted as C)

C#CCN1C(=O)CN(C)C(=O)CN(C)C(=O)[C@H]([C@@H](C)CC)NC(=O)[C@H](CC(C)C)N(C)C(=O)C[C@@H](C(=O)N2CCOCC2)N(C)C(=O)[C@H](C2CCCC2)N(C)C(=O)C2(CCCC2)NC(=O)[C@@H]2CCCN2C(=O)[C@H](CCc2ccc(C(F)(F)F)c(Cl)c2)NC(=O)CN(C)C(=O)[C@@H]1Cc1ccc(C(F)(F)F)cc1 [PP0130] ([NMeL]I[Sar][Sar][X38][Sar][hPhe(3-Cl-4-CF3)]P[Ac5c][NMeGly(cPent)][NMeD]-Morpholide; lactam N-11)
Kd [1]: 0.25 nM
NRAS/KRAS (ratio of KD value for NRAS to KD value for KRAS) [2]: C (A compound having a KD ratio of 0.1 or more and less than 3 is denoted as C)
HRAS/KRAS (ratio of KD value for HRAS to KD value for KRAS) [3]: C (A compound having a KD ratio of 0.1 or more and less than 3 is denoted as C)

CC[C@H](C)[C@@H]1NC(=O)[C@H](CC(C)C)N(C)C(=O)C[C@@H](C(=O)N2CCOCC2)N(C)C(=O)[C@H](C2CCCC2)N(C)C(=O)C2(CCCC2)NC(=O)[C@@H]2CCCN2C(=O)[C@H](CCc2ccc(C(F)(F)F)c(Cl)c2)NC(=O)CN(C)C(=O)[C@H](Cc2ccc(C(F)(F)F)cc2)N(CCC(F)(F)F)C(=O)CN(C)C(=O)CN(C)C1=O [PP0131] ([NMeL]I[Sar][Sar][X25][Sar][hPhe(3-Cl-4-CF3)]P[Ac5c][NMeGly(cPent)][NMeD]-Morpholide; lactam N-11)
Kd [1]: 0.14 nM
NRAS/KRAS (ratio of KD value for NRAS to KD value for KRAS) [2]: B (a compound having 3 or more and less than 10 is denoted as B)
HRAS/KRAS (ratio of KD value for HRAS to KD value for KRAS) [3]: C (A compound having a KD ratio of 0.1 or more and less than 3 is denoted as C)
